Measurements reported in patent US7776862B2, “Pyridyl and phenyl substituted piperazine-piperidines with CXCR3 antagonist activity” (Schering Corporation, priority 2005, dated 2010).

target: T1, human CXCR3 (N-delta 4) (Homo sapiens, UniProt P49682); assay: Human CXCR3 (N-delta 4) scintillation proximity assay (SPA), [125I] IP-10 binding; details: IC50 rating; Ba/F3-hCXCR3 (N-delta 4) membranes, 25 pM [125I] IP-10
T1 construct: CD8 leader; Flag tag; expressed in transfected cells; membranes used
T1 sequence (P49682 5-368 limits assumed): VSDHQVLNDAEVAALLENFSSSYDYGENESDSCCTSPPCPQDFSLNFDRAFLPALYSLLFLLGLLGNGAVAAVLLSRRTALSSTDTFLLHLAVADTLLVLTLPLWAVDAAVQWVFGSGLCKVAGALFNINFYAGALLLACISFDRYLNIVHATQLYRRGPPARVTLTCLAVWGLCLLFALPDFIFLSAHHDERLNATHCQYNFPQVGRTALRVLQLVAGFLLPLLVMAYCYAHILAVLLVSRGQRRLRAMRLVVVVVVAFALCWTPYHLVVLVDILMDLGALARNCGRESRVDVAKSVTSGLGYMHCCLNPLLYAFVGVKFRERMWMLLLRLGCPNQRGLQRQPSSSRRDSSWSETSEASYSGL
Excerpt: The inventive compounds can readily be evaluated to determine activity at the CXCR3 receptors by known methods, such as, for example, development of a human CXCR3 (N-delta 4) Binding Assay.
Cloning and expression of human CXCR3 (N-delta 4):
The DNA encoding human CXCR3 was cloned by PCR using human genomic DNA (Promega, Madison, Wis.) as a template. The PCR primers were designed based on the published sequence of human orphan receptor GPR9 (1) with incorporated restriction sites, a Kozak consensus sequence, CD8 leader and Flag tag. The PCR product was subcloned into the mammalian expression vector pME18Sneo, a derivative of the SR-alpha expression vector (designated as pME18Sneo-hCXCR3 (N-delta 4).
IL-3-dependent mouse pro-B cells Ba/F3 were transfected by electroporation in 0.4 ml Dulbecco's PBS containing 4×10^6 cells with 20 μg of pME18Sneo-hCXCR3 (N-delta 4) plasmid DNA. Cells were pulsed at 400 Volts, 100 OHMs, 960 μFd. The transfected cells were under selection with 1 mg/ml G418 (Life Technologies, Gaithersburg, Md.). […] IP-10 (NEN Life Science Products, Boston, Mass.).
Preparation of Ba/F3-hCXCR3 (N-delta 4) membranes:
Ba/F3 cells expressing human CXCR3 (N-delta 4) were pelleted and resuspended in the lysis buffer containing 10 mM HEPES, pH 7.5 and Complete® protease inhibitors (1 tablet per 100 ml) (Boehringer Mannheim, Indianapolis, Ind.) at a cell density of 20×10^6 cells per ml. […] Large cellular debris was removed by centrifugation at 1,000×g. Cell membrane in the supernatant was sedimented at 100,000×g. The membrane was resuspended in the lysis buffer supplemented with 10% sucrose and stored at −80° C. Total protein concentration of the membrane was determined by BCA method from Pierce (Rockford, Ill.).
Human CXCR3 (N-delta 4) scintillation proximity assay (SPA):
The beads were spun down, washed once, resuspended in the binding buffer and transferred to a 96-well Isoplate (Wallac, Gaithersburg, Md.). […] IP-10 with tested compounds in a series of titration were added to start the reaction.

IC50, > 100 nM:
O=C(NCc1cccc(F)c1)c1cnc(N2CCN(C3CCN(Cc4ccc(Cl)cc4Cl)CC3)CC2)c(Cl)c1 [compound 1]
N#Cc1ccc(C(=O)N2CCC(N3CCN(c4ncc(C(=O)NCc5ccc(C(F)(F)F)cc5)cc4Cl)CC3)CC2)cc1 [compound 2]
O=C(NC1CCc2ccccc21)c1cnc(N2CCN(C3CCN(Cc4ccc(Cl)cc4)CC3)CC2)c(Br)c1 (centres unmarked) [compound 3]
O=C(NCc1ccc(F)cc1)c1cnc(N2CCN(C3CCN(Cc4ccc(Br)cc4F)CC3)CC2)c(Cl)c1 [compound 4]
O=C(NCc1ccccc1)c1cnc(N2CCN(C3CCN(Cc4ccc(F)cc4)CC3)CC2)c(Cl)c1 [compound 5]
N#Cc1ccc(CN2CCC(N3CCN(c4ncc(C(=O)NCc5ccccc5F)cc4Cl)CC3)CC2)cc1 [compound 6]
O=C(NCc1ccc(F)cc1)c1cnc(N2CCN(C3CCN(Cc4ccc(Cl)cc4Cl)CC3)CC2)c(Cl)c1 [compound 7]
O=C(NCc1cccc(F)c1)c1cnc(N2CCN(C3CCN(Cc4ccc(F)cc4F)CC3)CC2)c(Cl)c1 [compound 8]
CC1(C)C2CCC(CNC(=O)c3cnc(N4CCN(C5CCN(Cc6ccc(Cl)cc6)CC5)CC4)c(Br)c3)C1C2 (centres unmarked) [compound 9]
O=C(NCc1ccc(F)cc1F)c1cnc(N2CCN(C3CCN(Cc4ccc(Cl)cc4Cl)CC3)CC2)c(Cl)c1 [compound 10]
O=C(NCc1ccc(Br)cc1)c1cnc(N2CCN(C3CCN(Cc4ccc(Cl)cc4Cl)CC3)CC2)c(Cl)c1 [compound 11]
O=C(NCc1cc(Cl)cc(Cl)c1)c1cnc(N2CCN(C3CCN(Cc4ccc(F)cc4F)CC3)CC2)c(Cl)c1 [compound 12]
O=C(NCc1ccc(Cl)cc1)c1cnc(N2CCN(C3CCN(Cc4ccc(Cl)cc4Cl)CC3)CC2)c(Cl)c1 [compound 13]
O=C(NCc1cccc(F)c1)c1cnc(N2CCN(C3CCN(Cc4ccc(Br)cc4F)CC3)CC2)c(Cl)c1 [compound 14]
N#Cc1ccc(C(=O)N2CCC(N3CCN(c4ncc(C(=O)NCCOc5ccccc5)cc4Cl)CC3)CC2)cc1 [compound 15]
O=C(NCCOc1ccccc1)c1cnc(N2CCN(C3CCN(Cc4ccc(F)cc4F)CC3)CC2)c(Cl)c1 [compound 16]
O=C(NCc1ccc(Cl)c(Cl)c1)c1ccc(N2CCN(C3CCN(Cc4ccc(Cl)cc4)CC3)CC2)c(Cl)c1 [compound 17]
O=C(NC1CCCC1)c1cnc(N2CCN(C3CCN(Cc4ccc([N+](=O)[O-])cc4)CC3)CC2)c(Cl)c1 [compound 18]
N#Cc1ccc(C(=O)N2CCC(N3CCN(c4ncc(C(=O)NCc5ccc(F)cc5)cc4Cl)CC3)CC2)cc1 [compound 19]
O=C(NCc1ccc(F)cc1F)c1cnc(N2CCN(C3CCN(Cc4ccc(Br)cc4F)CC3)CC2)c(Cl)c1 [compound 20]
N#Cc1ccc(CN2CCC(N3CCN(c4ncc(C(=O)NCc5ccccc5)cc4Cl)CC3)CC2)cc1 [compound 21]
O=C(NC1CCCC1)c1cnc(N2CCN(C3CCN(Cc4ccc(Cl)c(F)c4)CC3)CC2)c(Cl)c1 [compound 22]
O=C(NCCOc1ccccc1)c1cnc(N2CCN(C3CCN(Cc4ccc(Br)cc4F)CC3)CC2)c(Cl)c1 [compound 23]
O=C(NCc1cccc(Cl)c1)c1cnc(N2CCN(C3CCN(Cc4ccc(Cl)c(F)c4)CC3)CC2)c(Cl)c1 [compound 24]
O=C(NCc1ccc(F)c(F)c1)c1cnc(N2CCN(C3CCN(Cc4ccc(Cl)cc4Cl)CC3)CC2)c(Cl)c1 [compound 25]
O=C(NCc1ccc(Cl)cc1Cl)c1cnc(N2CCN(C3CCN(Cc4ccc(Br)cc4F)CC3)CC2)c(Cl)c1 [compound 26]
O=C(NCc1ccc(Cl)cc1F)c1cnc(N2CCN(C3CCN(Cc4ccc(Br)cc4F)CC3)CC2)c(Cl)c1 [compound 27]
O=C(NCc1cccc(Cl)c1)c1cnc(N2CCN(C3CCN(Cc4ccc(F)cc4F)CC3)CC2)c(Cl)c1 [compound 28]
O=C(NCc1cccc(F)c1)c1cnc(N2CCN(C3CCN(Cc4ccc(F)cc4)CC3)CC2)c(Cl)c1 [compound 29]
COc1ccc(CN2CCC(N3CCN(c4ncc(C(=O)NCc5cccc(F)c5)cc4Cl)CC3)CC2)cc1 [compound 30]
O=C(NCc1ccc(C(F)(F)F)cc1)c1cnc(N2CCN(C3CCN(Cc4ccc(Br)cc4)CC3)CC2)c(Cl)c1 [compound 31]
CC(c1ccc(C#N)cc1)N1CCC(N2CCN(c3ncc(C(=O)NCc4ccc(Cl)c(Cl)c4)cc3Cl)CC2)CC1 (centres unmarked) [compound 32]
O=C(NCc1ccc(F)c(Cl)c1)c1cnc(N2CCN(C3CCN(Cc4ccc(Br)cc4F)CC3)CC2)c(Cl)c1 [compound 33]
O=C(NCc1ccc(F)cc1)c1cnc(N2CCN(C3CCN(Cc4ccc(F)cc4F)CC3)CC2)c(Cl)c1 [compound 34]
O=C(NCCOc1ccccc1)c1cnc(N2CCN(C3CCN(Cc4ccc(F)c(F)c4)CC3)CC2)c(Cl)c1 [compound 35]
O=C(NCc1ccc(Br)cc1)c1cnc(N2CCN(C3CCN(Cc4ccc(Br)cc4F)CC3)CC2)c(Cl)c1 [compound 36]
O=C(NC1CCCC1)c1cnc(N2CCN(C3CCN(Cc4ccc(Br)cc4)CC3)CC2)c(Cl)c1 [compound 37]
O=C(NCCOc1ccccc1)c1cnc(N2CCN(C3CCN(Cc4ccc(Cl)cc4Cl)CC3)CC2)c(Cl)c1 [compound 38]
O=C(NCc1ccccc1)c1cnc(N2CCN(C3CCN(Cc4ccc(Br)cc4)CC3)CC2)c(Cl)c1 [compound 39]
N#Cc1ccc(CN2CCC(N3CCN(c4ncc(C(=O)NCc5cc(Cl)cc(Cl)c5)cc4Cl)CC3)CC2)cc1 [compound 40]
O=C(NCc1ccc(F)cc1F)c1cnc(N2CCN(C3CCN(Cc4ccc(F)cc4F)CC3)CC2)c(Cl)c1 [compound 41]
COc1ccc(CN2CCC(N3CCN(c4ncc(C(=O)NCc5ccc(C(F)(F)F)cc5)cc4Cl)CC3)CC2)cc1 [compound 42]
O=C(NCc1cccc(Cl)c1)c1cnc(N2CCN(C3CCN(Cc4ccc(Br)cc4)CC3)CC2)c(Cl)c1 [compound 43]
COc1ccc(CN2CCC(N3CCN(c4ncc(C(=O)NCc5cc(Cl)cc(Cl)c5)cc4Cl)CC3)CC2)cc1 [compound 44]
CC(c1ccc(Cl)cc1)N1CCC(N2CCN(c3ncc(C(=O)NCc4ccc(Cl)c(Cl)c4)cc3Cl)CC2)CC1 (centres unmarked) [compound 45]
CC(c1ccc(Cl)cc1)N1CCC(N2CCN(c3ncc(C(=O)NCc4ccc(F)c(F)c4)cc3Cl)CC2)CC1 (centres unmarked) [compound 46]
N#Cc1ccc(CN2CCC(N3CCN(c4ncc(C(=O)NCc5cccc(Cl)c5)cc4Cl)CC3)CC2)cc1 [compound 47]
O=C(NCc1ccc(Cl)cc1)c1cnc(N2CCN(C3CCN(Cc4ccc(Br)cc4F)CC3)CC2)c(Cl)c1 [compound 48]
O=C(NCCOc1ccccc1)c1cnc(N2CCN(C3CCN(Cc4ccc(Cl)c(Cl)c4)CC3)CC2)c(Cl)c1 [compound 49]
COc1ccc(CN2CCC(N3CCN(c4ncc(C(=O)NCc5ccc(F)cc5)cc4Cl)CC3)CC2)cc1 [compound 50]
